In PubChem BioAssay (NCI):
Where “and” joins values, the source holds several entries; their conditions need not be identical. Equal entries are not always repeated.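 Assay format: 96-well plates, 48-hour exposure. Here, GI50 denotes the concentration required for 50% inhibition of growth. TGI denotes the concentration required for complete inhibition of growth.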

Key:
Test in all cases: NCI tumour cell line growth inhibition, 48 h
[1] = tested on: HOP-92 NSCLC
[2] = tested on: DMS 114 small cell lung
[3] = tested on: HL-60(TB) leukemia
[4] = tested on: SK-MEL-28 melanoma
[5] = tested on: SW-620 colon
[6] = tested on: M14 melanoma
[7] = tested on: KM12 colon
[8] = tested on: MDA-N
[9] = tested on: HS 578T breast
[10] = tested on: MDA-MB-231 breast

Compound | TGI [1] | TGI [2] | TGI [3] | TGI [4] | TGI [5] | TGI [6] | GI50 [1] | TGI [7] | GI50 [4] | GI50 [6] | GI50 [3] | GI50 [7] | GI50 [5] | GI50 [8] | TGI [8] | GI50 [9] | TGI [9] | GI50 [10] | TGI [10] | GI50 [2]
CCOC(=O)C(=O)C(C#N)c1ccc(Cl)cc1 (stereo unspecified) | > 100 µM | > 100 µM | > 100 µM | > 100 µM | > 100 µM | > 100 µM | – | – | – | – | – | – | – | – | – | – | – | – | – | –
Cc1cc(Cl)cc2c1NC(=O)C2(O)C(C(=O)c1ccccc1)c1ccccc1 (stereo unspecified) | 78.7 µM and > 100 µM | 85.7 µM and 45.8 µM | 52.1 µM | > 100 µM and 51 µM | > 100 µM | > 100 µM and 55.5 µM | 17.2 µM and 43.3 µM | > 100 µM | 96.6 µM and 24.5 µM | 90.9 µM and 22.6 µM | – | – | – | – | – | – | – | – | – | –
O=C(O)CCC1c2[nH]c3ccccc3c2CCN1Cc1ccccc1 (stereo unspecified) | > 100 µM | > 100 µM | > 100 µM | > 100 µM | > 100 µM | > 100 µM | – | > 100 µM | – | – | – | – | – | – | – | – | – | – | – | –
O=C(CC1(O)C(=O)Nc2ccccc21)c1ccccc1O (stereo unspecified) | > 100 µM | > 100 µM | > 100 µM | > 100 µM | > 100 µM | > 100 µM | – | – | – | – | – | – | – | – | – | – | – | – | – | –
CC1[C@@H]2CC=C3[C@H]4CCC5Cc6nc7c(nc6C[C@@]5(C)C4CC(=O)[C@]32CO[C@]12OC(C)(C)CC2O)CC1CC[C@@H]2C3=C[C@H]4O[C@@]5(O[C@@](C)(CO)C[C@@H]5O)C(C)[C@@]4(O)[C@]3(C)[C@@H](O)CC2[C@]1(C)C7 (stereo partly specified) | – | 0.0424 µM | – | 0.00273 µM | 0.0262 µM and 0.0526 µM | 0.0124 µM | 0.000668 µM and 0.000454 µM | 0.0788 µM and 0.0848 µM | 0.00062 µM | 0.00131 µM | 0.000355 µM and 0.000365 µM | 0.00188 µM and 0.000966 µM | 0.000982 µM and 0.00204 µM | 0.00389 µM | 0.0303 µM | 0.000112 µM | 0.00137 µM | 0.00121 µM | 0.284 µM | –
N#Cc1cccc(C2C(=O)c3ccc(C(=O)c4ccc5c(c4)C(=O)N(c4ccc(Oc6ccc(N7C(=O)c8ccc(C(=O)c9ccc%10c(c9)C(=O)N(c9cccc(C#N)c9)C%10=O)cc8C7=O)cc6)cc4)C5=O)cc3C2=O)c1 (stereo unspecified) | > 100 µM | > 100 µM | > 100 µM | > 100 µM | > 100 µM | > 100 µM | – | > 100 µM | – | – | – | – | – | – | – | – | – | – | – | –
N#CCCN(c1ccc(C=O)cc1)S(=O)(=O)c1ccccc1 | – | > 100 µM | > 100 µM | > 100 µM | > 100 µM | > 100 µM | – | > 100 µM | – | – | – | – | – | – | – | – | – | – | – | –
O=C(CC(=O)c1cccc([N+](=O)[O-])c1)C(=O)Nc1ccccc1 | > 100 µM | > 100 µM | > 100 µM | > 100 µM | > 100 µM | > 100 µM | – | > 100 µM | – | – | – | – | – | – | – | – | – | – | – | –
CN1C2(c3ccccc3)C(C(=O)c3ccccc3)=C(C(=O)c3ccccc3)C1(c1ccccc1)c1c(-c3ccccc3)sc(-c3ccccc3)c12 | > 100 µM | > 100 µM | > 100 µM | > 100 µM | > 100 µM | > 100 µM | – | > 100 µM | – | – | – | – | – | – | – | – | – | – | – | –
Cc1ccc(NC(=O)CC2SC(=Nc3ccc(Cl)cc3)NC2=O)cc1C (stereo unspecified) | 27.5 µM | 42.1 µM | 9.12 µM | 33.9 µM | 18.5 µM | 31.2 µM | – | 40.3 µM | – | – | – | – | – | – | – | – | – | – | – | –
Cc1ccccc1-n1c(CCl)nc2ccc(Br)cc2c1=O | 36 µM | 20.5 µM | 17 µM | 32.5 µM | 8.95 µM | 22.8 µM | – | 26.9 µM | – | – | – | – | – | – | – | – | – | – | – | –
CC1=C(C(=O)Nc2ccc(C)cc2)C(c2cccc([N+](=O)[O-])c2)C(C(=O)Nc2ccc(C)cc2)=C(C)N1 | – | 74.2 µM | 39.4 µM | > 100 µM | > 100 µM | 49.2 µM | – | 40.2 µM | – | – | – | – | – | – | – | – | – | – | – | –
CC[As](CC)SCC1OC(OC(C)=O)C(OC(C)=O)C(OC(C)=O)C1OC(C)=O (stereo unspecified) | 13.2 µM | 17.6 µM | 19.2 µM | 15.7 µM | 16.3 µM | 24.7 µM | – | 34.7 µM | – | – | – | – | – | – | – | – | – | – | – | –
CC1=CC[C@@H](C(C)(C)O)C[C@@H]1O | > 5000 µM | > 5000 µM | > 5000 µM | > 5000 µM | > 5000 µM | > 5000 µM | – | > 5000 µM | – | – | – | – | – | – | – | – | – | – | – | –
Cc1cc(C)nc(NS(=O)(=O)c2ccc(NC(=O)COC(=O)c3cccc4c(=O)c5ccccc5[nH]c34)cc2)n1 | 60.3 µM | > 100 µM | 63.9 µM | > 100 µM | 83.9 µM | > 100 µM | – | 38.8 µM | – | – | – | – | – | – | – | – | – | – | – | –
COc1ccc([C@@H]2OC(=O)C3C2C(=O)O[C@H]3c2ccc(OC)cc2)cc1 (stereo partly specified) | – | > 100 µM | > 100 µM | > 100 µM | > 100 µM | – | – | > 100 µM | – | – | – | – | – | – | – | – | – | – | – | –
COc1cc(CC(=O)O)c([N+](=O)[O-])cc1OC | > 100 µM | > 100 µM | > 100 µM | > 100 µM | > 100 µM | > 100 µM | – | > 100 µM | – | – | – | – | – | – | – | – | – | – | – | –
CCC(C)C1NC(=O)C(NC(=O)C(CC(C)C)N(C)C(=O)[C@@H]2CC(O)CN2C(=O)[C@H](C)O)C(C)OC(=O)[C@H](Cc2ccc(OC)cc2)N(C)C(=O)[C@@H]2CCCN2C(=O)[C@H](CC(C)C)NC(=O)C(C)C(=O)[C@H](C(C)C)OC(=O)CC1O (stereo partly specified) | 1.99 µM and 0.285 µM | – | 2.03 µM | 0.467 µM and 0.256 µM | 2.3 µM and 0.919 µM | 0.762 µM and 0.202 µM | 0.0127 µM | 0.735 µM and 0.173 µM | < 0.01 µM | 0.0114 µM | 0.154 µM | < 0.01 µM | 0.0581 µM | 0.0292 µM | 1.07 µM and 1.11 µM | < 0.01 µM | 0.283 µM and 0.0317 µM | 0.0926 µM | 0.991 µM and 3.95 µM | –
Cc1c(Cl)c(C)c(Cl)c(O)c1Cl | 58 µM | – | 58.4 µM | > 100 µM | > 100 µM | 49.1 µM | – | > 100 µM | – | – | – | – | – | – | 99.2 µM | – | 61.2 µM | – | > 100 µM | –
COC(=O)C1=CC(=O)[C@@H]2CCCC[C@H]12 | – | > 100 µM | > 100 µM | > 100 µM | > 100 µM | > 100 µM | – | > 100 µM | – | – | – | – | – | – | – | – | – | – | – | –
c1ccc(CC(Nc2cccnc2)c2ccccc2)cc1 (stereo unspecified) | 35.9 µM | – | 50.1 µM | > 100 µM | > 100 µM | 37.9 µM | – | 70.2 µM | – | – | – | – | – | – | 47.8 µM | – | 95.2 µM | – | 48.7 µM | –
[CH3][Hg]/[N]=C(/N)NC#N | 3.84 µM | 3.43 µM | > 100 µM | 30.1 µM | 5.28 µM | 22.9 µM | 1.78 µM | 30 µM | 11.9 µM | 10.6 µM | 2.76 µM | 16.5 µM | 2.23 µM | – | – | – | – | – | – | 1.98 µM
Cc1cc(C)c(/C=N/NS(=O)(=O)c2ccccc2)c(C)c1 | 95.9 µM | > 100 µM | > 100 µM | > 100 µM | > 100 µM | > 100 µM | – | > 100 µM | – | – | – | – | – | – | – | – | – | – | – | –
CCCCCCCCCC[C@H](O)[C@H]1CC[C@@H]([C@@H](O)CC[C@H](O)[C@@H]2CCC(CCCCCCC[C@@H](O)CC3=C[C@H](C)OC3=O)O2)O1 (stereo partly specified) | 4.34 µM and 16 µM | – | 4.95 µM | 5.44 µM and 39 µM | – | 2.93 µM and 9.75 µM | 1.99 µM | – | 7.62 µM | 2.73 µM | – | 4.25 µM | 4.8 µM | 2.1 µM | 16 µM | – | 4.86 µM | – | 7.03 µM and 44.2 µM | –
CC#CC#C/C(=C/C=CC(=O)OC)SC | > 100 µM | – | > 100 µM | > 100 µM | > 100 µM | > 100 µM | – | > 100 µM | – | – | – | – | – | – | > 100 µM | – | > 100 µM | – | > 100 µM | –
